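Results reflect a 48-hour exposure of cells in 96-well plates to compound at five concentrations. TGI: total growth inhibition.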
Columns and labels:
Test in all cases: NCI tumour cell line growth inhibition, 48 h
[1] = system: BT-549 breast
[2] = system: NCI-H23 lung
[3] = system: HT29 colon
[4] = system: HCT-15 colon
[5] = system: SR leukemia
[6] = system: MCF7 breast
[7] = system: NCI-H460 lung
[8] = system: OVCAR-5 ovarian
[9] = system: UACC-257 melanoma
[10] = system: T-47D breast
[11] = system: MDA-MB-435
[12] = system: PC-3 prostate
[13] = system: DU-145 prostate
[14] = system: LOX IMVI melanoma
[15] = system: CAKI-1 renal
[16] = system: MDA-N
[17] = system: SN12C renal
[18] = system: UACC-62 melanoma
[19] = system: SK-MEL-2 melanoma
[20] = system: RXF 393 renal
[21] = system: A498 renal
[22] = system: SF-539 CNS
[23] = system: UO-31 renal
[24] = system: RPMI-8226 leukemia
[25] = system: OVCAR-8 ovarian
[26] = system: HL-60(TB) leukemia
[27] = system: NCI-H522 lung
[28] = system: SNB-19 CNS
[29] = system: 786-0 renal
[30] = system: SK-MEL-28 melanoma
[31] = system: OVCAR-3 ovarian
[32] = system: HOP-92 NSCLC
[33] = system: MALME-3M melanoma
[34] = system: OVCAR-4 ovarian
[35] = system: HS 578T breast
[36] = system: CCRF-CEM leukemia
[37] = system: NCI/ADR-RES ovarian
[38] = system: EKVX NSCLC
[39] = system: SF-268 CNS
[40] = system: SW-620 colon
[41] = system: A549 NSCLC
[42] = system: SK-OV-3 ovarian
[43] = system: HOP-62 NSCLC
[44] = system: U251 CNS
[45] = system: SK-MEL-5 melanoma
[46] = system: ACHN renal
[47] = system: COLO 205 colon
[48] = system: SF-295 CNS
[49] = system: HCC-2998 colon
[50] = system: MOLT-4 leukemia
[51] = system: SNB-75 CNS
[52] = system: TK-10 renal
[53] = system: KM12 colon
[54] = system: HCT-116 colon
[55] = system: M14 melanoma
[56] = system: NCI-H226 lung
[57] = system: K-562 leukemia
[58] = system: IGROV1 ovarian
[59] = system: MDA-MB-231 breast
[60] = system: SNB-78 CNS
[61] = system: LXFL 529 NSCLC
[62] = system: M19-MEL melanoma
[63] = system: DMS 114 small cell lung
[64] = system: DLD-1 colon
[65] = system: HOP-18 NSCLC

## CC(C)=CCC[C@](C)(O)[C@H]1CC[C@]2(C)[C@@H]1[C@H](O)C[C@@H]1[C@@]3(C)CC[C@H](O[C@@H]4O[C@H](CO)[C@@H](O)[C@H](O)[C@H]4O)C(C)(C)[C@@H]3CC[C@]12C
[1]
  TGI: 34.3 µM
[2]
  TGI: 38 µM
[3]
  TGI: 32.5 µM
[4]
  TGI: 32.8 µM
[5]
  TGI: 28.8 µM
[6]
  TGI: 32.2 µM
[7]
  TGI: 30.2 µM
[8]
  TGI: 49.3 µM
[9]
  TGI: 41.1 µM
[10]
  TGI: 34 µM
[11]
  TGI: 36.1 µM
[12]
  TGI: 31.9 µM
[13]
  TGI: 35.1 µM
[14]
  TGI: 91.5 µM
[15]
  TGI: 34.2 µM
[16]
  TGI: 36.3 µM
[17]
  TGI: 32.9 µM
[18]
  TGI: 31 µM
[19]
  TGI: 29.7 µM
[20]
  TGI: 32.2 µM
[21]
  TGI: 35.4 µM
[22]
  TGI: 38.8 µM
[23]
  TGI: 31.1 µM
[24]
  TGI: 38.8 µM
[25]
  TGI: 33.6 µM
[26]
  TGI: 45.8 µM
[27]
  TGI: 31.9 µM
[28]
  TGI: 35.4 µM
[29]
  TGI: 36 µM
[30]
  TGI: 34.8 µM
[31]
  TGI: 32 µM
[32]
  TGI: 33.7 µM
[33]
  TGI: 34.6 µM
[34]
  TGI: 38.1 µM
[35]
  TGI: 47 µM
[36]
  TGI: 43.8 µM
[37]
  TGI: 55.1 µM
[38]
  TGI: 39.4 µM
[39]
  TGI: 29.3 µM
[40]
  TGI: 36.6 µM
[41]
  TGI: 37.7 µM
[42]
  TGI: 33 µM
[43]
  TGI: 47.8 µM
[44]
  TGI: 35.2 µM
[45]
  TGI: 32.1 µM
[46]
  TGI: 32.9 µM
[47]
  TGI: 37.3 µM
[48]
  TGI: 39.6 µM
[49]
  TGI: 49.4 µM
[50]
  TGI: 34.8 µM
[51]
  TGI: 33.5 µM
[52]
  TGI: 39.6 µM
[53]
  TGI: 33.3 µM
[54]
  TGI: 41.2 µM
[55]
  TGI: 46 µM
[56]
  TGI: 34.6 µM
[57]
  TGI: 38.1 µM
[58]
  TGI: 29.8 µM
[59]
  TGI: 36.4 µM

## O=C1C(c2ccc([N+](=O)[O-])cc2)=[N+]([O-])c2ccccc21
[2]
  TGI: 63.4 µM
[60]
  TGI: 61.1 µM
[61]
  TGI: > 100 µM
[62]
  TGI: 41.5 µM
[3]
  TGI: > 100 µM
[4]
  TGI: 54.4 µM
[5]
  TGI: 62.3 µM
[7]
  TGI: > 100 µM
[8]
  TGI: 47.5 µM
[63]
  TGI: 27.1 µM
[14]
  TGI: 60.9 µM
[15]
  TGI: > 100 µM
[17]
  TGI: 93.5 µM
[18]
  TGI: 40.5 µM
[19]
  TGI: > 100 µM
[20]
  TGI: 60.4 µM
[22]
  TGI: > 100 µM
[23]
  TGI: 67 µM
[24]
  TGI: > 100 µM
[25]
  TGI: 16.4 µM
[26]
  TGI: 71.9 µM
[27]
  TGI: 20.3 µM
[64]
  TGI: > 100 µM
[29]
  TGI: > 100 µM
[30]
  TGI: 77.2 µM
[31]
  TGI: 55.4 µM
[32]
  TGI: 77.4 µM
[33]
  TGI: > 100 µM
[34]
  TGI: 21.7 µM
[36]
  TGI: > 100 µM
[38]
  TGI: > 100 µM
[39]
  TGI: > 100 µM
[40]
  TGI: > 100 µM
[41]
  TGI: > 100 µM
[42]
  TGI: > 100 µM
[43]
  TGI: 82.3 µM
[44]
  TGI: 36.3 µM
[45]
  TGI: 31.5 µM
[65]
  TGI: 26.5 µM
[46]
  TGI: > 100 µM
[47]
  TGI: 30.1 µM
[48]
  TGI: > 100 µM
[50]
  TGI: > 100 µM
[51]
  TGI: 69 µM
[52]
  TGI: 91.9 µM
[53]
  TGI: > 100 µM
[54]
  TGI: 64.3 µM
[55]
  TGI: > 100 µM
[56]
  TGI: > 100 µM
[57]
  TGI: > 100 µM
[58]
  TGI: > 100 µM

## C[C@@H]1CCC2[C@@H](C)[C@H](O[C@H]3O[C@@H]4O[C@@]5(C)CCC6[C@H](C)CCC([C@H]3C)[C@]64OO5)O[C@@H]3O[C@@]4(C)CCC1[C@@]23OO4 (some centres undefined)
[1]
  TGI: 14.7 µM
[2]
  TGI: 13.3 µM
[3]
  TGI: 13.4 µM
[4]
  TGI: 12.4 µM
[5]
  TGI: 1.28 µM
[6]
  TGI: 25.3 µM
[7]
  TGI: 17 µM
[8]
  TGI: 10.3 µM
[9]
  TGI: 18.6 µM
[10]
  TGI: 22.2 µM
[11]
  TGI: 21.6 µM
[12]
  TGI: 12.5 µM
[13]
  TGI: 19.5 µM
[14]
  TGI: 1.58 µM
[15]
  TGI: 13.9 µM
[16]
  TGI: 19.2 µM
[17]
  TGI: 15.6 µM
[18]
  TGI: 15.9 µM
[19]
  TGI: 9.69 µM
[20]
  TGI: 21.4 µM
[21]
  TGI: 9.51 µM
[22]
  TGI: 21.9 µM
[23]
  TGI: 11 µM
[24]
  TGI: 1.46 µM
[25]
  TGI: 16.7 µM
[26]
  TGI: 3.81 µM
[27]
  TGI: 12.9 µM
[28]
  TGI: 25.2 µM
[29]
  TGI: 18 µM
[30]
  TGI: 27.3 µM
[31]
  TGI: 18.3 µM
[32]
  TGI: 11.4 µM
[33]
  TGI: 19.1 µM
[34]
  TGI: 16.4 µM
[35]
  TGI: 24.2 µM
[36]
  TGI: 18.3 µM
[37]
  TGI: 15.5 µM
[38]
  TGI: 18.7 µM
[39]
  TGI: 23.8 µM
[40]
  TGI: 16.5 µM
[41]
  TGI: 32.3 µM
[42]
  TGI: 41.7 µM
[43]
  TGI: 25.5 µM
[44]
  TGI: 23.8 µM
[45]
  TGI: 12.8 µM
[46]
  TGI: 14.2 µM
[47]
  TGI: 0.326 µM
[48]
  TGI: 18.8 µM
[49]
  TGI: 14.5 µM
[50]
  TGI: 15 µM
[51]
  TGI: 14.5 µM
[52]
  TGI: 17.2 µM
[53]
  TGI: 13.3 µM
[54]
  TGI: 12.7 µM
[55]
  TGI: 20.6 µM
[56]
  TGI: 34.1 µM
[57]
  TGI: > 100 µM
[58]
  TGI: 18.4 µM
[59]
  TGI: 13.1 µM

— PubChem BioAssay (NCI)
